Assay [1] deals with T1, MK-801-binding (intrachannel) site of NMDA receptor (Rattus norvegicus, UniProt P35439).
T1 construct: from tissue; host or cells: rat hippocampus membranes
In words: Radioligand binding assay, [3H]MK-801 displacement.
Method: (§3) The effect of the test compounds on radioligand binding to NMDA receptors was evaluated by a modified method, as previously reported [83]. The following two radioligands were used: [^3H] […] A hippocampal membrane preparation for the radioligand binding assay was made as described previously [86, 87]. The obtained membrane pellet was resuspended in a working buffer (5 mM HEPES/4.5 mM Tris, pH 7.6 at 4 °C) in a ratio of 1:5 and stored in liquid nitrogen. The reaction mixture (the final volume was 0.5 mL) contained the working buffer (200 μL), a 50 nM radioligand solution (50 μL) and the membrane suspension (250 μL). The nonspecific binding was evaluated in the presence of 1 mM of the unlabeled ligand (50 μL).
(§4) For the binding assay, the reaction mixture was incubated at room temperature for 2 h. After the incubation, the samples were filtered through GF/B glass fiber filters (Whatman), washed with the working buffer, dried and transferred to scintillation vials. Then the scintillation fluid (5 mL), which is composed of diphenyloxazole (PPO) (4 g) and bis(5-phenyl-2-oxazolyl)benzene (POPOP) (0.2 g) in toluene (1 L) were added to the vials.
(§5) The effect of the test compounds on the binding of [^3H] […] The values of Ki were calculated according to a previously described method [88].

For assay [2], the target named is T2, ifenprodil-binding site of NMDA receptor (NR2B subunit) (Rattus norvegicus, UniProt P35439+Q00960).
T2 construct: from tissue; host or cells: rat hippocampus membranes
Nature of the assay: Radioligand binding assay, [3H]ifenprodil displacement.
Method: as §3, §4, §5

Assay [3] addresses T3, human erythrocyte AChE (Homo sapiens, UniProt P22303).
T3 construct: commercial human erythrocyte AChE; purchased Sigma; host or cells: human erythrocytes
Nature of the assay: biochemical. The following applies: mean ± SEM, n = 3; for inhibition at 20 µM: read-out: % of inhibition of AChE with 20 µM concentration of the compound, 20 µM compound.

Assay [4] deals with T4, equine serum BChE (Equus caballus, UniProt P81908).
T4 construct: equine serum BChE; purchased Sigma; host or cells: equine serum
T4 sequence (P81908 whole entry): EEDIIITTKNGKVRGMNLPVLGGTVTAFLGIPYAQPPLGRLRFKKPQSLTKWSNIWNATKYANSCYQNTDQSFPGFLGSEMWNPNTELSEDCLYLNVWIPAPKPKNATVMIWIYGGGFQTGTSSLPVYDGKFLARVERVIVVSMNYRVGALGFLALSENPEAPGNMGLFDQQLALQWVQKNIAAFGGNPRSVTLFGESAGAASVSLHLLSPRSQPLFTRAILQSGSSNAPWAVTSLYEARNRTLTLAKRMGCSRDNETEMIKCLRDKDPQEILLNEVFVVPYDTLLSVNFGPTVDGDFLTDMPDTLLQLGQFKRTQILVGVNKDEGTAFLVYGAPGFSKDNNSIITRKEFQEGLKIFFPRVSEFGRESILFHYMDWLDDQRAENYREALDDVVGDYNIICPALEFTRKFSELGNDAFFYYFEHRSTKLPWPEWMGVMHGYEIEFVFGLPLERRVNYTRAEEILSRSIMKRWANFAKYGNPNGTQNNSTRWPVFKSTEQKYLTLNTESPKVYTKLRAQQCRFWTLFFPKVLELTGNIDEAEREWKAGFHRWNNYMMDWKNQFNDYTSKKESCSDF
Nature of the assay: biochemical. The following applies: 5 min incubation; mean ± SEM, n = 3.
Method: (§6) Reagents blanks consisted of reaction mixtures without substrates. […] Final enzyme and substrate concentrations were 0.02 unit/mL and 1 mM, respectively. Assays were carried out with a blank containing all constituents except porcine CES to assess non-enzymatic hydrolysis. The measurements were performed on a FLUOstar OPTIMA multifunctional microplate reader (BMG LABTECH, Ortenberg, Germany). The compounds were dissolved in DMSO. The incubation mixture contained 2% (v/v) of the solvent. […] The sample of the appropriate enzyme was incubated with the test compound for 5 min, and then the residual enzymatic activity was determined. Each experiment was performed in triplicate. […] Each experiment was performed in triplicate. The IC50 values were calculated with Origin 6.1 software.

The target of the next assay is T5, porcine liver CES (Sus scrofa, UniProt Q29550).
T5 sequence (Q29550 19-566): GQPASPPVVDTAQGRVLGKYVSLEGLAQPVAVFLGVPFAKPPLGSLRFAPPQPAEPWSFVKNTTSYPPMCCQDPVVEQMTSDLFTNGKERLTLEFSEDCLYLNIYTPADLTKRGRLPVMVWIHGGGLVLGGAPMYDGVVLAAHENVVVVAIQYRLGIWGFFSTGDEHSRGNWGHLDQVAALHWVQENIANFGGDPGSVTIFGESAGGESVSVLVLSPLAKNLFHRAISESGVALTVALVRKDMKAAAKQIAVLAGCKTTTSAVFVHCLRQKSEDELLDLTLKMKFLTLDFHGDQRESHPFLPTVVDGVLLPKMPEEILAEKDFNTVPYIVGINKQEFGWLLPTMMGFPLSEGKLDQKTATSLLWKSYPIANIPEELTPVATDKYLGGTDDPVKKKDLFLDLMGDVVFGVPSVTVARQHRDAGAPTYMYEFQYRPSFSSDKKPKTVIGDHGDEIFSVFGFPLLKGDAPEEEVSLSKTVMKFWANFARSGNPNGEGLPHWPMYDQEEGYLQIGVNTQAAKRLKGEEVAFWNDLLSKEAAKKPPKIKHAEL
In words: CES inhibition, 4-nitrophenyl acetate hydrolysis. The class given is biochemical. Conditions: read-out: % of inhibition of CES with 20 µM concentration of the compound.

Another assay deals with T6, PAS of EeAChE (Electrophorus electricus, UniProt O42275).
T6 construct: AChE from Electrophorus electricus (EeAChE, type VI-S, lyophilized powder); purchased Sigma-Aldrich type VI-S; host or cells: Electrophorus electricus tissue
T6 sequence (O42275 24-633): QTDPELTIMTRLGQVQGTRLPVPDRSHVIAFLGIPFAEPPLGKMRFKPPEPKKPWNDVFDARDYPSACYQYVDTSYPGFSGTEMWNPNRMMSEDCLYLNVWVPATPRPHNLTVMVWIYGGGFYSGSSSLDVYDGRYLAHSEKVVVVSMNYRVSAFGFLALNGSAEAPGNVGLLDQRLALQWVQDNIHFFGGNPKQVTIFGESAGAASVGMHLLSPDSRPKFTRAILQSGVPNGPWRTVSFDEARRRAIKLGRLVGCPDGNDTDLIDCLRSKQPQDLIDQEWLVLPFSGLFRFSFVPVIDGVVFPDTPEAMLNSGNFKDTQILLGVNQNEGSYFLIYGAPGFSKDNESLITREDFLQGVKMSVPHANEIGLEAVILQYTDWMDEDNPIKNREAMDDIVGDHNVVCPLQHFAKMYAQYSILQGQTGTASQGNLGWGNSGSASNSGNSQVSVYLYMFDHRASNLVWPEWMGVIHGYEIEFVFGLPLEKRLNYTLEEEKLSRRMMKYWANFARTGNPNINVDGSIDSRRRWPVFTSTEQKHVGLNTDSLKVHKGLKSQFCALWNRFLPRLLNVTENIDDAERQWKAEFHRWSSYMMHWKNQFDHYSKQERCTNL
The class given is binding. The following applies: 20 µM compound; 7 µM EeAChE, 8 µM propidium iodide; mean ± SEM, n = 3.

For assay [5], the target named is T3, human erythrocyte AChE. Nature of the assay: Kinetic study of AChE inhibition (Lineweaver-Burk). The class given is biochemical. As to the method:
(§1) Kinetic studies were performed using commercial human erythrocyte AChE, equine serum BChE and porcine liver CES (Sigma, USA). The AChE and BChE activity was evaluated by Ellman’s method (λ = 412 nm) using 1 mM acetylthiocholine and 1 mM butyrylthiocholine (Sigma, St. Louis, MO, USA), respectively, as the substrate in 100 mM phosphate buffer, pH 7.5, 0.33 mM DTNB, 0.02 unit/mL of AChE or BChE at 25 °C as described in detail in [71]. Reagents blanks consisted of reaction mixtures without substrates. The CES activity was measured spectrophotometrically based on the release of 4-nitrophenol (λ = 405 nm) in the presence of 1 mM 4-nitrophenyl acetate as the substrate in 100 mM phosphate buffer, pH 8.0, at 25 °C as described in [71]. Final enzyme and substrate concentrations were 0.02 unit/mL and 1 mM, respectively. Assays were carried out with a blank containing all constituents except porcine CES to assess non-enzymatic hydrolysis. The measurements were performed on a FLUOstar OPTIMA multifunctional microplate reader (BMG LABTECH, Ortenberg, Germany). The compounds were dissolved in DMSO. The incubation mixture contained 2% (v/v) of the solvent. […] The sample of the appropriate enzyme was incubated with the test compound for 5 min, and then the residual enzymatic activity was determined. Each experiment was performed in triplicate. […]. […] Each experiment was performed in triplicate. The IC50 values were calculated with Origin 6.1 software.
(§2) The mechanisms of AChE and BChE inhibition were assessed by a thorough analysis of enzyme kinetics. The residual activity was determined after a 5-min incubation at 25 °C (for temperature equilibration) with three increasing concentrations of the inhibitor and six decreasing substrate concentrations.

Assay [6] has as its target T4, equine serum BChE. In words: Kinetic study of BChE inhibition (Lineweaver-Burk). The class given is biochemical. As for the experimental part:
as §1, §2

The subject of assay [7] is isolated rat liver mitochondria. In words: Ca2+-induced mitochondrial swelling (MPT pore opening). The class given is biochemical. The following applies: 30 µM compound; 12.5 µM Ca2+; 10 mM glutamate, 2 mM malate, 10 mM succinate; percentage relative to the reference compound. As to the method:
Experiments were performed using outbred male rats weighing 200–220 g. The animals were housed under standard vivarium conditions in a normal day/night cycle and had ad libitum access to water and food. The procedure of rat euthanasia using carbon dioxide (CO2) inhalation for mitochondria preparation is in compliance with the Guidelines for Animal Experiments, which were approved by the local bioethics committee of the IPAC RAS.
Rat liver mitochondria were isolated by conventional differential centrifugation. Membrane potential of rat liver mitochondria was measured using the potential-sensitive fluorescent probe Safranine A on a Victor 3 multilabel plate reader (Perkin Elmer, Waltham, MA, USA). The fluorescence was recorded at λex = 485 nm and λem = 590 nm. Mitochondrial swelling was measured by spectrophotometry in 96-well clear bottom plates on a Victor 3 microplate reader (Perkin Elmer, Waltham, MA, USA) at 620 nm; CaCl2 was added to induce mitochondrial swelling (MPT opening).

Assay [8] has as its system tubulin and microtubule-associated proteins (Tb+MAP). In words: GTP-dependent Tb+MAP polymerization. The class given is biochemical, mouse. The following applies: 100 µM compound; 0.1 mM GTP, 37 °C. An excerpt:
A crude fraction of tubulin and microtubule-associated proteins (Tb+MAP) was isolated from mouse brain tissue by a polymerization–depolymerization method. The procedure of mouse euthanasia using cervical dislocation for Tb+MAP preparation is in compliance with the Guidelines for Animal Experiments, which were approved by the local bioethics committee of the IPAC RAS. The freshly dissected brain was immediately placed on ice, cleared of meninges and surface blood vessels, and washed with cold buffer A (50 mM Tris-HCl, pH 6.9 at 4 °C, 2 mM EGTA). The extracted brain tissue was homogenized under ice cooling in the same buffer using a Potter S homogenizer (Sartorius). The resulting homogenate was centrifuged at 10,000× g for 30 min on an Avanti 25 centrifuge (Beckman) using a JA-14 rotor for the precipitation of non-ruptured cells. The precipitate was discarded, and the supernatant was again centrifuged at 100,000× g for 60 min at 4 °C on an Optima MAX XP centrifuge (Beckman) using a MLA-50 rotor. The precipitate was again discarded. The protein concentration in the supernatant was determined by the Bradford assay using the Bio-Rad Protein Assay kit (Bio-Rad, Hercules, CA, USA) according to manufacturer’s instructions. The resulting supernatant was a cytosolic fraction enriched in microtubular proteins (Tb and MAP).
The Tb+MAP preparation was centrifuged at 5000× g for 10 min at 4 °C immediately before polymerization in order to remove denatured and aggregated protein molecules by precipitation. The Tb+MAP polymerization was performed at 37 °C in buffer A in the presence of 0.1 mM GTP after addition of 100 µM of test compound or the same volume of vehicle (DMSO). The protein concentration in the sample was 0.2 mg/mL. The polymerization kinetics was monitored on a Victor 3 or EnVision microplate reader (Perkin Elmer, USA) at 355 nm and the stabilized rate of polymerization after the first wave was measured (dA355/dt).

[9] abbreviates: Lineweaver-Burk double-reciprocal plots.

Structures are written as SMILES.

T3 sequence (P22303 32-617 isoform P22303-2 limits assumed): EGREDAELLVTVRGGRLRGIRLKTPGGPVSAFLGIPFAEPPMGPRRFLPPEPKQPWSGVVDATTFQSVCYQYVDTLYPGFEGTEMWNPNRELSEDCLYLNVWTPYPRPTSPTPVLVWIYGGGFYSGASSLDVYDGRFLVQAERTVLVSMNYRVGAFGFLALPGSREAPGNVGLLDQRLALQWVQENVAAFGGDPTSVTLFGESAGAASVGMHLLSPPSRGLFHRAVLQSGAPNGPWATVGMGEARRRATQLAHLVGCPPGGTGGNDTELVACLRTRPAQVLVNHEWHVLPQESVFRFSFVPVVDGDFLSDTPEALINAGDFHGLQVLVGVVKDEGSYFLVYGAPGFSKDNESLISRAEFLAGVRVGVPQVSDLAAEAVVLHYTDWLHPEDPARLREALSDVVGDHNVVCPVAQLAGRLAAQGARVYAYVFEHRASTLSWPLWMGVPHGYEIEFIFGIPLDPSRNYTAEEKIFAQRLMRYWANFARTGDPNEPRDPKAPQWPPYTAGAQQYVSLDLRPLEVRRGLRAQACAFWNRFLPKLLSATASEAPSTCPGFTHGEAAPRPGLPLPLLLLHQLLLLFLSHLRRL
T2 sequence (Q00960 27-1482, other chains not shown): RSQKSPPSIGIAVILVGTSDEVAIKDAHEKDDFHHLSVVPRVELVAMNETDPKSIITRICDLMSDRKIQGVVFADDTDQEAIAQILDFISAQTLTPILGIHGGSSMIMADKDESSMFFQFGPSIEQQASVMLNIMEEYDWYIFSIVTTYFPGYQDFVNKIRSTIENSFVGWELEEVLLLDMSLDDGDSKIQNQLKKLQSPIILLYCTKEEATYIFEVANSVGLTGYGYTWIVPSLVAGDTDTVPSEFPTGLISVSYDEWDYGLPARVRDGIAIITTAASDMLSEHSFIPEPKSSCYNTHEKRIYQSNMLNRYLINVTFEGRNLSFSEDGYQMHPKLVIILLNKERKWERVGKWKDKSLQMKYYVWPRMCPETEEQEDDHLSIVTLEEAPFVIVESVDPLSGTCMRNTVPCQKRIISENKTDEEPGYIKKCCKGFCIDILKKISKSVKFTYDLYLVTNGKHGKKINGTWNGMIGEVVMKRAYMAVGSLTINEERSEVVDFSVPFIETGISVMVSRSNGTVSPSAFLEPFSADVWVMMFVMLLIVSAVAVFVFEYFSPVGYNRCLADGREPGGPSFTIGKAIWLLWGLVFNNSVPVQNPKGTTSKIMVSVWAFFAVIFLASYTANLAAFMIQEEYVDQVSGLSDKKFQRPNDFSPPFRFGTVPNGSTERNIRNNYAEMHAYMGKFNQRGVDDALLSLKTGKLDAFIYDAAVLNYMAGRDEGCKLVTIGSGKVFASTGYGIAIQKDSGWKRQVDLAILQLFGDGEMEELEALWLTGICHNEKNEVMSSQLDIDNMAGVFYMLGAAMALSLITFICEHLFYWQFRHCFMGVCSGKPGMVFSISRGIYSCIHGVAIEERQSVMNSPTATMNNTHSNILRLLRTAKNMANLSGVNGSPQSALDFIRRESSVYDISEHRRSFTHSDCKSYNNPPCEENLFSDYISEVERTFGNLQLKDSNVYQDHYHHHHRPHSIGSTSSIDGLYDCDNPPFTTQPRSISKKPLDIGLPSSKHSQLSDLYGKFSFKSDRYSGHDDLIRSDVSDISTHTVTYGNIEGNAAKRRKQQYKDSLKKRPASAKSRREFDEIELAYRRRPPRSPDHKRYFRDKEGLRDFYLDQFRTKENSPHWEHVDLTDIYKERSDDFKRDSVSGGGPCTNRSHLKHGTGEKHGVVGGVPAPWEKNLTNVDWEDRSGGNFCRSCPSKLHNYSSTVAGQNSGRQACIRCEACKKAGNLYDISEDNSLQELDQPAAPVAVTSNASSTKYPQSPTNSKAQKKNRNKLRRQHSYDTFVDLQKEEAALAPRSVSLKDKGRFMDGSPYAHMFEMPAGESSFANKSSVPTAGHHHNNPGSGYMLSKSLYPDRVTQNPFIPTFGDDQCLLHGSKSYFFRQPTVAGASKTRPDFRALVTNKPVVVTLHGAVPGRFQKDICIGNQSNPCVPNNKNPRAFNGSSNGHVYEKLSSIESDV
Method for PAS of EeAChE: The compounds were evaluated as potential inhibitors of proaggregation activity of AChE by measuring the displacement of propidium iodide from the PAS of the enzyme [53] using a fluorescence method [28]. AChE from Electrophorus electricus (EeAChE, type VI-S, lyophilized powder, Sigma-Aldrich, St. Louis, MO, USA) was used for consistency with our previous studies [8, 13, 63, 74]. The fluorescence intensity of propidium iodide bound to AChE increases several-fold. A decrease in the fluorescence intensity in the presence of the test compounds is indicative of their ability to bind to the AChE PAS and, correspondingly, to inhibit β-amyloid aggregation.
EeAChE (7 µM) was incubated with 20 µM of the test compound in 1 mM Tris-HCl buffer, pH 8.0, at 25 °C for 15 min. Then a solution of propidium iodide was added (final concentration 8 µM), the mixture was incubated for 15 min, and the fluorescence spectrum was recorded (excitation at 530 nm and emission at 600 nm). […] The blank contained propidium iodide at the same concentration in 1 mM Tris-HCl buffer, pH 8.0 at 25 °C. The measurements were performed in triplicate on a FLUOstar OPTIMA multifunctional microplate reader.
The degree of displacement of propidium iodide from the PAS of AChE (% displacement) was calculated by the equation:% displacement = 100 − (IFAChE + Propidium + inhibitor/IFAChE + Propidium) × 100, where IFAChE + Propidium is the fluorescence intensity of propidium iodide bound to EeAChE in the absence of the test compound (taken as 100%), and IFAChE + Propidium + inhibitor is the fluorescence intensity of propidium iodide bound to EeAChE in the presence of the test compound.
Method for porcine liver CES: as §6

For `CN1CCc2c(c3cc(F)ccc3n2CCNC23CC4CC(C)(CC(C)(C4)C2)C3)C1.Cl.Cl` [Compound 4c, N-(2-(8-Fluoro-2-methyl-3,4-dihydro-1H-pyrido[4,3-b]indol-5(2H)-yl)ethyl)-3,5-dimethyladamantane-1-amine dihydrochloride], the inhibition constant Ki was found to be 4.7 ± 0.5 µM in assay [1]; 3.1 ± 0.3 µM in assay [2]; 13.7 ± 0.02 µM on human erythrocyte AChE [5] (Lineweaver-Burk analysis, read-out: Ki (competitive component), AChE); 230 ± 20 nM on equine serum BChE [6] (Lineweaver-Burk analysis, read-out: Ki (competitive component), BChE). In addition, the IC50 against human erythrocyte AChE [3] (5 min incubation) was 39.7 ± 3.2 µM; against equine serum BChE [4], 0.729 ± 0.011 µM. Also, on porcine liver CES, the inhibition at 20 µM came to 6.9 ± 0.4%. For the same compound, at PAS of EeAChE, the “% of Displacement of Propidium Iodide from the PAS of EeAChE” value (“% of Displacement of Propidium Iodide” below) worked out at 13.1 ± 1.0%. Besides, on human erythrocyte AChE [5] (Lineweaver-Burk analysis), the “αKi (non-competitive component), AChE” value came out at 45.5 ± 3.8 µM. Besides, the “Type of AChE inhibition” value on human erythrocyte AChE [5] (setting [9]) was “mixed type of inhibition”. Also, the “αKi (non-competitive component), BChE” value at equine serum BChE [6] (Lineweaver-Burk analysis) is given as 0.70 ± 0.01 µM. Further, the “Type of BChE inhibition” value at equine serum BChE [6] (setting [9]) is reported as “mixed type of inhibition”. In assay [7], the “Rate of Ca2+-Induced Mitochondrial Swelling (dA620/dt)” value (shortened to “Rate … (dA620/dt)”) turned out to be 31 ± 10%. In assay [8], the “Rate of Tb+MAP Polymerization (dA355/dt)” value is given as 166 ± 11%.

Consider `Cc1ccc2c(c1)c1c(n2CC(=O)NC23CC4CC(C)(CC(C)(C4)C2)C3)CCN(C)C1.Cl` [Compound 8b, 2-(2,8-Dimethyl-3,4-dihydro-1H-pyrido[4,3-b]indol-5(2H)-yl)-N-(3,5-dimethyladamantan-1-yl)acetamide hydrochloride], for which the figures for the inhibitory constant (Ki) in assay [1] and in assay [2] were 55.1 ± 5.1 µM and 89.7 ± 8.7 µM, respectively. Also, the inhibition at 20 µM came out at 17.7 ± 1.4% on human erythrocyte AChE [3] and 6.4 ± 0.5% on porcine liver CES. The IC50 against equine serum BChE [4] turned out to be 33.7 ± 3.5 µM. The “% of Displacement of Propidium Iodide” value at PAS of EeAChE is 2.8 ± 0.2%. Moreover, the “Rate … (dA620/dt)” value in [7] is given as 87 ± 33%. In addition, the “Rate of Tb+MAP Polymerization (dA355/dt)” value in assay [8] came to 314 ± 46%.

Turning to `CN1CCc2c(c3ccccc3n2CC(=O)NC23CC4CC(CC(C4)C2)C3)C1.Cl` [Compound 8d, N-(Adamantan-1-yl)-2-(2-methyl-3,4-dihydro-1H-pyrido[4,3-b]indol-5(2H)-yl)acetamide hydrochloride], the Ki was 49.5 ± 4.5 µM in [1] and 79.1 ± 7.1 µM in [2]. Moreover, the inhibition at 20 µM came out at 5.4 ± 1% at human erythrocyte AChE [3] and 8.8 ± 1.2% at porcine liver CES. The compound also gave an IC50 against equine serum BChE [4] of 26.5 ± 0.4 µM. At PAS of EeAChE, the “% of Displacement of Propidium Iodide” value is given as 1.4 ± 0.2%. Also, the “Rate … (dA620/dt)” value in [7] is reported as 45 ± 17%. The “Rate of Tb+MAP Polymerization (dA355/dt)” value in assay [8] is listed as 128 ± 15%.

`Cc1ccc2c(c1)c1c(n2CC(=O)NC23CC4CC(CC(C4)C2)C3)CCN(C)C1.Cl` [Compound 8e, N-(Adamantan-1-yl)-2-(2,8-dimethyl-3,4-dihydro-1H-pyrido[4,3-b]indol-5(2H)-yl)acetamide hydrochloride]: the Ki stood at 72.7 ± 6.6 µM in assay [1] and 105 ± 10 µM in assay [2]. Also, the inhibition at 20 µM on human erythrocyte AChE [3] stood at 13.5 ± 0.9%; at porcine liver CES, 9.9 ± 1.5%. Further, the IC50 at equine serum BChE [4] is 43.2 ± 2.9 µM. The “% of Displacement of Propidium Iodide” value on PAS of EeAChE was 1.2 ± 0.1%. In addition, the “Rate … (dA620/dt)” value in assay [7] is 49 ± 12%. Besides, the “Rate of Tb+MAP Polymerization (dA355/dt)” value in assay [8] is 133 ± 28%.

In general, Ki refers to the equilibrium dissociation constant of an inhibitor or competing ligand from its target. The term IC50 denotes the concentration at which inhibition is half-maximal.

The record behind these values is article PMC8471380 (Molecules, 2021).
